Patent publication US6653306B1, “Epoxy-steroidal aldosterone antagonist and angiotensin II antagonist combination therapy” (G.D. Searle & Co., priority 1995, dated 2003)
Several values for one entry are separate records, joined by “and”; a condition that tells them apart may be missing. Identical values can stand only once.

How the values were obtained:
[1] = system: pressor response to AII; assay: Assay C: In vivo intragastric pressor assay response for AII antagonists; set-up: species or system rat; settings: dose 3 mg/kg, intragastric, or intraduodenal for examples listed; for inhibition at 3 mg/kg: Rattus norvegicus
Method in brief: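 Conscious male Sprague-Dawley rats with arterial and venous catheters received 30 ng/kg i.v. angiotensin II boluses before and at 30–180 min after gavage of compound (standard 3 mg/kg in 0.5% methylcellulose). Pressor rise in mmHg measured; percent inhibition calculated versus averaged control response at each time point.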

[2] = target: angiotensin II AT1 receptor; assay: Assay A: Angiotensin II binding activity (125I-AII displacement, rat uterine membrane preparation)
[3] = system: rabbit aortic rings; assay: Assay B: In vitro vascular smooth muscle response for AII (antagonist activity, pA2); type: cell-based; settings: in vitro vascular smooth muscle response, two values per cell separated by / are separate determinations; for Kb: Oryctolagus cuniculus, read-out: Assay B pA2 (converted)
Method in brief: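 Endothelium-denuded thoracic aortic rings from male New Zealand white rabbits, in oxygenated Krebs at 37 °C under ~1 g tension; isometric contraction to AII (3×10^−10 to 1×10^−5 M).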

| Compound | inhibition at 3 mg/kg [1] [%] | Assay C Duration [1] [min] | IC50 [2] [µM] | Kb [3] [µM] | Assay B pA2 [3] |
| --- | --- | --- | --- | --- | --- |
| CCCCn1nc(C(OCC)OCC)nc1Cc1ccc(-c2ccccc2-c2nnn[nH]2)nc1 [Compound 176] | 10 | 150 | 0.0098 | 0.0204 | – |
| CCCCc1nc(C(F)(F)CCC)nn1Cc1ccc(-c2ccccc2-c2nnn[nH]2)nc1 [Compound 247] | 20 | 180 | 0.0094 | 0.0055 | – |
| CCCCc1nc(C(F)(F)CCC)n(Cc2ccc(-c3ccccc3-c3nnn[nH]3)nc2)n1 [Compound 248] | 10 | – | 0.02 | 0.0209 | – |
| CCCCc1nc(C(=O)N(C)C(C)(C)C)nn1Cc1ccc(-c2ccccc2-c2nnn[nH]2)nc1 [Compound 255] | 20 | >180 | 0.012 | 0.0245 | – |
| CCCCc1cn(-c2c(OC)cccc2OC)c(=O)n1Cc1ccc(-c2ccccc2-c2nnn[nH]2)cc1 [Compound 273] | 25 | >180 | 0.0098 | – | 8.53 and 8.61 |
| CCCCc1cn(-c2c(C)cccc2Cl)c(=O)n1Cc1ccc(-c2ccccc2-c2nnn[nH]2)cc1 [Compound 274] | 35 | >180 | 0.013 | – | 9.06 and 8.85 |
| CCCCc1cn(-c2c(C)cccc2C)c(=O)n1Cc1ccc(-c2ccccc2-c2nnn[nH]2)cc1 [Compound 275] | 40 | >180 | 0.0063 | 0.000851 | – |
| CCCCc1cn(-c2c(CC)cccc2CC)c(=O)n1Cc1ccc(-c2ccccc2-c2nnn[nH]2)cc1 [Compound 276] | < 20 | – | 0.033 | – | 8.71 and 8.64 |
| CCCCc1cn(-c2c(C)cc(C)cc2C)c(=O)n1Cc1ccc(-c2ccccc2-c2nnn[nH]2)cc1 [Compound 278] | 50 | >180 | 0.03 | – | 8.49 and 8.51 |
